# In PMC10498496, “Design and Synthesis of Poly(2,2′-Bipyridyl) Ligands for Induction of Cell Death in Cancer Cells: Control of Anticancer Activity by Complexation/Decomplexation with Biorelevant Metal Cations” (Inorganic Chemistry, 2023):
# Like-named read-outs stand apart in the source and are kept apart here.
# Legend:
# Type in all cases: cell-based, human
# Jurkat cells [1] = assay: MTT assay, cytotoxicity against Jurkat cells; conditions: MTT, 37 °C, read-out: EC50 against Jurkat (converted)
# Method: (§1) Second, we conducted the quantitative evaluation of the cytotoxicity of 1, 2, and 3 against various cancer cell lines by an MTT (3-(4,5-dimethylthiazol-2-yl)-2,5-diphenyltetrazolium bromide) assay. Jurkat, MOLT-4 (these two cell lines are human T-lymphocyte leukemia cells), and U937 (human lymphoma) cells (1.5 × 10^4 cells/well) were incubated in RPMI 1640 medium containing 10% FBS (fetal bovine serum) containing 1, 2, and 3 (0–25 μM) at 37 °C for 24 h, and then treated with the MTT reagent. A549 (human alveolar adenocarcinoma) and IMR-90 (normal human fetal lung fibroblast as model of normal cells) cells (1.5 × 10^4 cells/well) were incubated in DMEM (low glucose) with 10% FBS containing 1, 2, and 3 (0–25 μM), HeLa S3 (human epithelial carcinoma cells) cells (1.5 × 10^4 cells/well) were incubated in MEM with 10% FBS containing these ligands (0–25 μM) for 24 h at 37 °C and then treated with the MTT reagent.
# (§2) • (a) Cytotoxic study. Jurkat cells, MOLT-4 cells, and U937 cells (1.5 × 10^5 cells/mL per one well) were incubated in 10% FBS RPMI 1640 medium containing 1 (0–25 μM), 2 (0–25 μM) , 3, cisplatin (0–100 μM), and actinomycin D (0–10 μM) under 5% CO2 at 37 °C for 24 h on 96 well plates (Watson), 0.5% MTT (3-(4,5-dimethyl-2-thiazolyl)-2,5-diphenyl-2H-tetrazolium bromide) reagent in PBS (10 μL) was then added to the cells. After incubation at 37 °C for 4 h, a formazan lysis solution (10% SDS in 0.01 N HCl) (100 μL) was added and the resulting solution was incubated overnight under the same conditions, followed by the measurement of absorbance at 570 nm with a microplate reader (BIO-RAD).
# MOLT-4 cells = assay: MTT assay, cytotoxicity against MOLT-4 cells; conditions: MTT, 37 °C, read-out: EC50 against MOLT-4
# Method: as §1, §2
# U937 cells = assay: MTT assay, cytotoxicity against U937 cells; conditions: MTT, 37 °C, treated for 24 h, read-out: EC50 against U937
# Method: as §1, §2
# HeLa S3 cells = assay: MTT assay, cytotoxicity against HeLa S3 cells; conditions: MTT, 37 °C, read-out: EC50 against HeLa S3 (converted)
# Method: Second, we conducted the quantitative evaluation of the cytotoxicity of 1, 2, and 3 against various cancer cell lines by an MTT (3-(4,5-dimethylthiazol-2-yl)-2,5-diphenyltetrazolium bromide) assay. Jurkat, MOLT-4 (these two cell lines are human T-lymphocyte leukemia cells), and U937 (human lymphoma) cells (1.5 × 10^4 cells/well) were incubated in RPMI 1640 medium containing 10% FBS (fetal bovine serum) containing 1, 2, and 3 (0–25 μM) at 37 °C for 24 h, and then treated with the MTT reagent. […]
# HeLa S3 cells and A549 cells in MEM and DMEM medium with 10% FBS (1.5 × 10^5 cells/mL per one well) were seeded in to 96 well plates and incubated for 24 h, MTT assay of poly(bpy) ligands (0–25 μM), cisplatin (0–100 μM), and actinomycin D (0–10 μM) was performed according to the same procedure described above.
# Jurkat cells [2] = assay: MTT assay in the presence of the caspase inhibitor Z-VAD-fmk; conditions: Z-VAD-fmk 15 μM 3 h
# From the text: We, therefore, selected Jurkat cells to study the cell death mechanism in detail, in this work. Programmed cell death (PCD) is generally classified into several types such as apoptosis, necroptosis, paraptosis, autophagic cell death, and so on.[30]−[33] We hypothesized that 1 and 2 function as inducers of apoptosis, which is a type of PCD in cancer cells, based on the morphological change of Jurkat cells observed in Figure 1 and mechanism of chelation therapy proposed in the previous studies.[11]−[19] It is known that the caspases family are cysteine proteases that play important roles in apoptosis and necroptosis.[38] Therefore, the effect of Z-VAD-fmk, which is known as one of general caspase inhibitors, on the cell death induced by 1 and cisplatin was examined.
# Figure 3 Effect of Z-VAD-fmk on the cell death in Jurkat cells induced by 1. Jurkat cells were incubated in RPMI in the presence of Z-VAD-fmk (15 μM) for 3 h and then treated with (a) 1 (1 μM) and (b) cisplatin (50 μM) for 24 h. Asterisks indicate significant difference with *(P ≤ 0.05).
# To investigate the mechanism responsible for the BAPTA-AM-induced cell death in Jurkat cells, Jurkat cells were incubated with Z-VAD-fmk (15 μM) for 3 h, and then cells were treated with BAPTA-AM (12.5 μM) for 24 h followed by an MTT assay.
# IMR-90 cells in DMEM medium with 10% FBS (1.5 × 10^5 cells/mL) were seeded in to 96 well plates and incubated for 24 h at 37 °C, MTT assays with poly(bpy) ligands and their metal complexes (0–100 μM), cisplatin (0–100 μM), and actinomycin D (0–10 μM) were performed following the same procedure described above. These experiments were carried out at least three times. • (b) MTT assay in the presence of a caspase inhibitor. […]
smiles,measurement,setting,value
"N.N.[Cl][Pt][Cl] [cisplatin, reference compound]",EC50,Jurkat cells [1]; treated for 24 h,33000 ± 200 nM
same,EC50,MOLT-4 cells; treated for 24 h,14000 ± 300 nM
same,EC50,U937 cells,24000 ± 900 nM
same,EC50,HeLa S3 cells; treated for 24 h,29000 ± 1200 nM
same,cell viability of Jurkat cells after preincubation with Z-VAD-fmk,Jurkat cells [2]; then compound 50 μM for 24 h,considerably restored
"c1ccc(-c2ccc(OCc3cc(COc4ccc(-c5ccccn5)nc4)cc(COc4ccc(-c5ccccn5)nc4)c3)cn2)nc1 [compound 1, 1,3,5-Tris(([2,2′-Bipyridin]-5-yloxy)methyl)benzene]",EC50,"Jurkat cells [1]; Homo sapiens, Jurkat, treated for 24 h",140 ± 130 nM
same,EC50,"Jurkat cells [1]; Homo sapiens, Jurkat, treated for 48 h",64 nM
same,EC50,"MOLT-4 cells; Homo sapiens, MOLT-4, treated for 24 h",210 ± 360 nM
same,EC50,"MOLT-4 cells; Homo sapiens, MOLT-4, treated for 48 h",< 100 nM
same,EC50,"U937 cells; Homo sapiens, U-937",320 ± 220 nM
same,EC50,"HeLa S3 cells; Homo sapiens, HeLa S3, treated for 24 h",16000 ± 330 nM
same,EC50,"HeLa S3 cells; Homo sapiens, HeLa S3, treated for 48 h",2800 nM
same,cell viability of Jurkat cells after preincubation with Z-VAD-fmk,Jurkat cells [2]; then compound 1 μM for 24 h,considerably restored
